{"source": "patent US6613322B2", "about": "“Method for treating a subject suffering from conditions associated with an extracellular zinc sphingomyelinase” (The Trustees of Columbia University in the City of New York, priority 1997, dated 2003)", "test_system": "L-SMase of HUVECs", "assay": "Cytokine regulation of L-SMase activity in HUVEC cell homogenates", "format": "cell-based, human", "settings": "cytokine-treated endothelial cells", "method": "FIGS. 23A-B. Cytokine regulation of S- and L-SMase of HUVECs. […] Conditioned media (FIG. 23A) and cell homogenates (FIG. 23B) from these cells were then assayed for SMase activity in the presence or absence of 0.1 mM ZnCl2, respectively.\nCells—Primary cultures of HUVEC were obtained from fresh umbilical cords and maintained in cell culture as previously described (31). Human coronary artery endothelial cells from a donor were purchased from Clonetics Corp. (San Diego, Calif.; cat. # CC-2585, Strain #3033). The cells were grown in endothelial basal media (EBM) (Clonetics) supplemented with 10% HI-FES; 10 μg endothelial cell growth supplement/ml (Sigma; cat. # E0760) and 50 μg gentamicin/ml. Primary cultures of bovine aortic endothelial, cells were established and subcultured as described previously (32). […]", "data": [{"substance": "IL-1β: human recombinant interleukin-1β", "values": [{"measurement": "L-SMase (lysosomal SMase) activity", "value": "decreased"}]}]}
